ChEMBL document CHEMBL1201862, “PubChem BioAssay data set” (2004)
“And” between values parts separate entries of the source, which are not always exact repeats. Identical values can stand only once.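 Each compound was tested at five concentrations against cells in 96-well plates for 48 hours. Abbreviation: GI50, concentration required for 50% inhibition of growth.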 The source made the active and inactive calls. Cut-off read from the data, not from the text of the source: active = GI50 up to about 1.1 µM and inactive = higher.

How the values were obtained:
Test in all cases: NCI-60 cell line screen, 48 h
EKVX = system: EKVX
HOP-92 = system: HOP-92
HT-29 = system: HT-29
Hs-578T = system: Hs-578T
K562 = system: K562
KM12 = system: KM12
MCF7 = system: MCF7
MDA-MB-231 = system: MDA-MB-231
MDA-MB-435 = system: MDA-MB-435
MOLT-4 = system: MOLT-4
Malme-3M = system: Malme-3M
NCI-H226 = system: NCI-H226
OVCAR-5 = system: OVCAR-5
SNB-75 = system: SNB-75
SW-620 = system: SW-620
U-251 = system: U-251
UACC-257 = system: UACC-257
UACC-62 = system: UACC-62
UO-31 = system: UO-31
A498 = system: A498

Row | Structure (SMILES) | GI50 (EKVX) | GI50 (HOP-92) | GI50 (HT-29) | GI50 (Hs-578T) | GI50 (K562) | GI50 (KM12) | GI50 (MCF7) | GI50 (MDA-MB-231) | GI50 (MDA-MB-435) | GI50 (MOLT-4) | GI50 (Malme-3M) | GI50 (NCI-H226) | GI50 (OVCAR-5) | GI50 (SNB-75) | GI50 (SW-620) | GI50 (U-251) | GI50 (UACC-257) | GI50 (UACC-62) | GI50 (UO-31) | GI50 (A498)
1 | O=C1c2ccccc2-c2nc(-c3cccnc3)cc3c2c1nc1ccccc13 | > 100 µM (inactive) | > 100 µM (inactive) | > 100 µM (inactive) | > 100 µM (inactive) | > 100 µM (inactive) | > 10 µM (inactive) | > 100 µM (inactive) | > 100 µM (inactive) | 18.2 µM (inactive) | 23.6 µM (inactive) | 92.9 µM (inactive) | > 100 µM (inactive) | > 100 µM (inactive) | > 100 µM (inactive) | > 100 µM (inactive) | > 100 µM (inactive) | > 100 µM (inactive) | 32.7 µM (inactive) | > 100 µM (inactive) | 
2 | CN1C(=O)c2ccccc2C(O)(c2ccccc2)C1(O)c1ccccc1 (stereo not drawn) | 81.5 µM (inactive) | 14.4 µM (inactive) | > 100 µM (inactive) | 29.2 µM (inactive) | > 100 µM (inactive) | > 100 µM (inactive) |  | > 100 µM (inactive) | > 100 µM (inactive) | 48.1 µM (inactive) | > 100 µM (inactive) | > 100 µM (inactive) | > 100 µM (inactive) | 91 µM (inactive) | > 100 µM (inactive) | > 100 µM (inactive) | > 100 µM (inactive) | 64.4 µM (inactive) | 32.5 µM (inactive) | > 100 µM (inactive)
3 | COC(=O)C1OC(O[C@H]2CC[C@]3(C)[C@H]4CC=C5[C@@H]6CC(C)(C)CC[C@]6(C(=O)OC6OCC(O)C(O)C6OC6OC(C)C(OC7OCC(O)C(O)C7O)C(O)C6O)[C@H](O)C[C@@]5(C)[C@]4(C)CC[C@H]3C2(C)C)C(O)C(O)C1O (stereo partly drawn) | 3.27 µM (inactive) and 2.82 µM (inactive) | 1.88 µM (inactive) and 2.09 µM (inactive) | 2.77 µM (inactive) and 3.73 µM (inactive) | 16.4 µM (inactive) and 16.3 µM (inactive) | 6.28 µM (inactive) and 10.8 µM (inactive) | 3.48 µM (inactive) and 3.61 µM (inactive) |  | 1.91 µM (inactive) and 2.36 µM (inactive) | 2.32 µM (inactive) and 1.95 µM (inactive) |  |  | 7.13 µM (inactive) and 3.94 µM (inactive) | 4.93 µM (inactive) and 6.59 µM (inactive) | 4.81 µM (inactive) and 8.53 µM (inactive) | 13.2 µM (inactive) and 11.7 µM (inactive) | 5.55 µM (inactive) and 6.11 µM (inactive) | 2.9 µM (inactive) and 5.79 µM (inactive) |  | 1.71 µM (inactive) and 2.04 µM (inactive) | 1.75 µM (inactive) and 1.86 µM (inactive)
4 | COc1ccc(N[S+]([O-])c2ccc(OC)cc2)cc1 (stereo not drawn) | 88.1 µM (inactive) |  | 39.9 µM (inactive) | 34 µM (inactive) | 26.1 µM (inactive) | 7.8 µM (inactive) | 31.6 µM (inactive) | 37.9 µM (inactive) | 15.9 µM (inactive) | 35.4 µM (inactive) | 25.5 µM (inactive) | 55.5 µM (inactive) | > 100 µM (inactive) |  | 64.6 µM (inactive) | 12.5 µM (inactive) | 69 µM (inactive) | 14.6 µM (inactive) | 12.5 µM (inactive) | 
5 | COc1c2occc2cc2ccc(=O)oc12 [METHOXSALEN] |  | > 100 µM (inactive) |  |  | > 100 µM (inactive) |  | > 100 µM (inactive) | > 100 µM (inactive) | > 100 µM (inactive) | > 100 µM (inactive) |  |  | > 100 µM (inactive) |  | > 100 µM (inactive) | > 100 µM (inactive) | > 100 µM (inactive) | 34.9 µM (inactive) | > 100 µM (inactive) | > 100 µM (inactive)
6 | O=c1ccc(-c2ccc(-n3ccnc3)cc2)nn1CCO | 46.6 µM (inactive) | > 100 µM (inactive) | > 100 µM (inactive) | > 100 µM (inactive) |  | > 100 µM (inactive) | 89.3 µM (inactive) |  | > 100 µM (inactive) | > 100 µM (inactive) | > 100 µM (inactive) |  | > 100 µM (inactive) | 39.9 µM (inactive) | > 100 µM (inactive) | > 100 µM (inactive) | > 100 µM (inactive) | > 100 µM (inactive) | > 100 µM (inactive) | > 100 µM (inactive)
7 | O=C1NC2(CCN(CCCC3(c4ccc(F)cc4)OCCO3)CC2)Oc2ccccc21 | 39.4 µM (inactive) | 23.7 µM (inactive) | 42.4 µM (inactive) |  | 64.4 µM (inactive) | > 100 µM (inactive) | 86.7 µM (inactive) | > 100 µM (inactive) | > 100 µM (inactive) | 51.8 µM (inactive) | > 100 µM (inactive) | > 100 µM (inactive) | > 100 µM (inactive) | 43.1 µM (inactive) | > 100 µM (inactive) | > 100 µM (inactive) | 57.3 µM (inactive) | > 100 µM (inactive) | 12.7 µM (inactive) | 21.3 µM (inactive)
8 | CC[C@H](CCCC[C@H]1CC[C@@H]2CC(=O)C[C@H]12)OC | 60.1 µM (inactive) | 27.4 µM (inactive) | 59 µM (inactive) | > 100 µM (inactive) | 13 µM (inactive) | > 100 µM (inactive) |  | > 100 µM (inactive) | > 100 µM (inactive) | 53.6 µM (inactive) | > 100 µM (inactive) | > 100 µM (inactive) |  | > 100 µM (inactive) |  | 95.5 µM (inactive) | 43.5 µM (inactive) | 60 µM (inactive) |  | 
9 | CNC1C(O)C(NC)C2OC3(O)C(=O)CC(C)OC3OC2C1O (stereo not drawn) | > 100 µM (inactive) | > 100 µM (inactive) | > 100 µM (inactive) | > 100 µM (inactive) | > 100 µM (inactive) | > 100 µM (inactive) | > 100 µM (inactive) | > 100 µM (inactive) | > 100 µM (inactive) | > 100 µM (inactive) |  | > 100 µM (inactive) | > 100 µM (inactive) | > 100 µM (inactive) | > 100 µM (inactive) | > 100 µM (inactive) | > 100 µM (inactive) | > 100 µM (inactive) | > 100 µM (inactive) | 
10 | O=c1c2cc(Br)ccc2oc2ccc(Br)cc12 |  | > 100 µM (inactive) | > 100 µM (inactive) |  | > 100 µM (inactive) | > 100 µM (inactive) | 27.5 µM (inactive) | > 100 µM (inactive) | > 100 µM (inactive) | > 100 µM (inactive) | > 100 µM (inactive) | > 100 µM (inactive) | > 100 µM (inactive) | 24.7 µM (inactive) | > 100 µM (inactive) | 64.6 µM (inactive) | > 100 µM (inactive) | > 100 µM (inactive) | > 100 µM (inactive) | > 100 µM (inactive)
11 | CC(C)(C)OC(=O)n1c(Cl)c(C=O)c2ccccc21 | 28 µM (inactive) | 30.9 µM (inactive) | 30.5 µM (inactive) | 34.8 µM (inactive) | 38.7 µM (inactive) | 18.4 µM (inactive) |  | 33.3 µM (inactive) | 43.9 µM (inactive) | 51.8 µM (inactive) | 19.1 µM (inactive) |  | 35.5 µM (inactive) | 68.5 µM (inactive) | 36.2 µM (inactive) | 35.6 µM (inactive) | 28.8 µM (inactive) | 19.3 µM (inactive) | 19.1 µM (inactive) | 43.6 µM (inactive)
12 | CC12C=CC(C)(C3C(=O)C4C(C(=O)C31)C1(C)C=CC4(C)[S+]1[O-])[S+]2[O-] (stereo not drawn) | > 100 µM (inactive) |  | 47.6 µM (inactive) | > 100 µM (inactive) |  | > 100 µM (inactive) |  | > 100 µM (inactive) |  |  | 83.4 µM (inactive) | > 100 µM (inactive) | > 100 µM (inactive) | 57.5 µM (inactive) |  |  | 71.9 µM (inactive) | 74 µM (inactive) | > 100 µM (inactive) | 
13 | CC1(C)N=C(N)N=C(N)N1c1ccc(OCC(=O)Nc2cccc(S(=O)(=O)F)c2)c(Cl)c1 |  | 2.25 µM (inactive) | 5.16 µM (inactive) | 12.2 µM (inactive) | 1.66 µM (inactive) | 17.7 µM (inactive) | 6.03 µM (inactive) | > 31.6 µM (inactive) | 4.52 µM (inactive) | 16.3 µM (inactive) |  | 1.8 µM (inactive) | 7.91 µM (inactive) | 54.7 µM (inactive) | 3.71 µM (inactive) | 13.6 µM (inactive) | 2.98 µM (inactive) | 0.676 µM (active) | 78.5 µM (inactive) | 
14 | O=c1[nH]c2nc3ccccc3c(=O)n2/c1=C/c1ccc(Cl)cc1 |  | 27.4 µM (inactive) |  | 20.8 µM (inactive) |  | 18.4 µM (inactive) | 50.1 µM (inactive) | 58.1 µM (inactive) | 21.7 µM (inactive) | 51.6 µM (inactive) | 28.9 µM (inactive) |  | 63.5 µM (inactive) |  | 17.9 µM (inactive) | 28.2 µM (inactive) | 30.7 µM (inactive) | 33.3 µM (inactive) | 67.6 µM (inactive) | 
15 | Cc1ccc(NC(=O)C(=O)C2C(=O)C3=C(CC2(C)C)NC2C=CC=CC2S3)c(C)c1 (stereo not drawn) | 73.8 µM (inactive) | 38.1 µM (inactive) | > 100 µM (inactive) | 51.3 µM (inactive) |  | > 100 µM (inactive) | > 100 µM (inactive) | 53.5 µM (inactive) | > 100 µM (inactive) | 99.8 µM (inactive) |  | 56.2 µM (inactive) |  | 30.4 µM (inactive) | > 100 µM (inactive) | 59 µM (inactive) | > 100 µM (inactive) | > 100 µM (inactive) | 48.2 µM (inactive) | 
